Measurements: patent US9738634B2, “Heterocyclic amide compound and herbicide” (SYNGENTA PARTICIPATIONS AG, priority 2013, dated 2017)

Legend:
Assay type in all cases: in vivo
[1] = test system: barnyard grass; assay: Test Example 1: weedkilling efficacy, preemergent weed treatment in the submerged state; A: barnyard grass; settings: treatment dosage 252 g/ha
Procedure, shortened: (§1)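 Visual scores against set criteria were taken 3 weeks after treatment. Compounds, as diluted emulsions at specified g/ha, went onto the water surface of 4 cm-flooded alluvial soil pots on the day weeds were sown and 2.5-leaf rice was transplanted; greenhouse held 25–30 °C.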

[2] = test system: bulrush; assay: Test Example 1: weedkilling efficacy, preemergent weed treatment in the submerged state; B: bulrush; settings: treatment dosage 252 g/ha
Procedure, shortened: as §1

[3] = test system: oval-leafed pondweed; assay: Test Example 1: weedkilling efficacy, preemergent weed treatment in the submerged state; C: oval-leafed pondweed; settings: treatment dosage 252 g/ha
Procedure, shortened: as §1

[4] = test system: transplanted rice; assay: Test Example 1: preemergent weed treatment in the submerged state, effect on crop; a: transplanted rice; settings: treatment dosage 252 g/ha
Procedure, shortened: as §1

[5] = test system: barnyard grass; assay: Test Example 2: weedkilling efficacy, growth period weed treatment in the submerged state; A: barnyard grass; settings: treatment dosage 252 g/ha
Procedure, shortened: (§2)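 Barnyard grass, bulrush and oval-leafed pondweed sown in alluvial soil under 4 cm flooding, greenhouse 25 to 30° C. At 1-2 leaf stage, water-diluted emulsion applied to the water surface at stated g/ha dosages; effects scored 3 weeks later.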

[6] = test system: bulrush; assay: Test Example 2: weedkilling efficacy, growth period weed treatment in the submerged state; B: bulrush; settings: treatment dosage 252 g/ha
Procedure, shortened: as §2

[7] = test system: oval-leafed pondweed; assay: Test Example 2: weedkilling efficacy, growth period weed treatment in the submerged state; C: oval-leafed pondweed; settings: treatment dosage 252 g/ha
Procedure, shortened: as §2

[8] = test system: crabgrass; assay: Test Example 3: weedkilling efficacy through soil treatment; D: crabgrass; settings: treatment dosage 315 g/ha
Procedure, shortened: (§3)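 Crop and weed responses were judged three weeks after a uniform surface spray of the water-diluted emulsion at the given g/ha rate. Seeds sat beneath about 1.5 cm of sterilized diluvial soil, and boxes stood in a greenhouse at 25 to 30° C.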

[9] = test system: green foxtail; assay: Test Example 3: weedkilling efficacy through soil treatment; E: green foxtail; settings: treatment dosage 315 g/ha
Procedure, shortened: as §3

[10] = test system: wild oat; assay: Test Example 3: weedkilling efficacy through soil treatment; G: wild oat; settings: treatment dosage 315 g/ha
Procedure, shortened: as §3

[11] = test system: black-grass; assay: Test Example 3: weedkilling efficacy through soil treatment; H: black-grass; settings: treatment dosage 315 g/ha
Procedure, shortened: as §3

[12] = test system: Italian ryegrass; assay: Test Example 3: weedkilling efficacy through soil treatment; I: Italian ryegrass; settings: treatment dosage 315 g/ha
Procedure, shortened: as §3

[13] = test system: Indian mallow; assay: Test Example 3: weedkilling efficacy through soil treatment; K: Indian mallow; settings: treatment dosage 315 g/ha
Procedure, shortened: as §3

[14] = test system: redroot pigweed; assay: Test Example 3: weedkilling efficacy through soil treatment; L: redroot pigweed; settings: treatment dosage 315 g/ha
Procedure, shortened: as §3

[15] = test system: fig-leafed goosefoot; assay: Test Example 3: weedkilling efficacy through soil treatment; M: fig-leafed goosefoot; settings: treatment dosage 315 g/ha
Procedure, shortened: as §3

[16] = test system: chickweed; assay: Test Example 3: weedkilling efficacy through soil treatment; N: chickweed; settings: treatment dosage 315 g/ha
Procedure, shortened: as §3

[17] = test system: catchweed; assay: Test Example 3: weedkilling efficacy through soil treatment; O: catchweed; settings: treatment dosage 315 g/ha
Procedure, shortened: as §3

[18] = test system: birds-eye speedwell; assay: Test Example 3: weedkilling efficacy through soil treatment; p: birds-eye speedwell; settings: treatment dosage 315 g/ha
Procedure, shortened: as §3

[19] = test system: directly sown rice; assay: Test Example 3: soil treatment, effect on crop; b: directly sown rice; settings: treatment dosage 315 g/ha
Procedure, shortened: as §3

[20] = test system: corn; assay: Test Example 3: soil treatment, effect on crop; c: corn; settings: treatment dosage 315 g/ha
Procedure, shortened: as §3

[21] = test system: soybean; assay: Test Example 3: soil treatment, effect on crop; d: soybean; settings: treatment dosage 315 g/ha
Procedure, shortened: as §3

[22] = test system: wheat; assay: Test Example 3: soil treatment, effect on crop; e: wheat; settings: treatment dosage 315 g/ha
Procedure, shortened: as §3

[23] = test system: beet; assay: Test Example 3: soil treatment, effect on crop; f: beet; settings: treatment dosage 315 g/ha
Procedure, shortened: as §3

[24] = test system: crabgrass; assay: Test Example 4: weedkilling efficacy by foliar treatment; D: crabgrass; settings: treatment dosage 315 g/ha
Procedure, shortened: (§4)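 Seeds are spot-sown into sterilized diluvial soil and covered with about 1.5 cm of soil. After 14 days' greenhouse growth at 25 to 30° C, plants are sprayed on stems and leaves with diluted emulsion at the stated g/ha rate, then scored at 3 weeks.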

[25] = test system: green foxtail; assay: Test Example 4: weedkilling efficacy by foliar treatment; E: green foxtail; settings: treatment dosage 315 g/ha
Procedure, shortened: as §4

[26] = test system: wild oat; assay: Test Example 4: weedkilling efficacy by foliar treatment; G: wild oat; settings: treatment dosage 315 g/ha
Procedure, shortened: as §4

[27] = test system: black-grass; assay: Test Example 4: weedkilling efficacy by foliar treatment; H: black-grass; settings: treatment dosage 315 g/ha
Procedure, shortened: as §4

[28] = test system: Italian ryegrass; assay: Test Example 4: weedkilling efficacy by foliar treatment; I: Italian ryegrass; settings: treatment dosage 315 g/ha
Procedure, shortened: as §4

[29] = test system: Indian mallow; assay: Test Example 4: weedkilling efficacy by foliar treatment; K: Indian mallow; settings: treatment dosage 315 g/ha
Procedure, shortened: as §4

[30] = test system: redroot pigweed; assay: Test Example 4: weedkilling efficacy by foliar treatment; L: redroot pigweed; settings: treatment dosage 315 g/ha
Procedure, shortened: as §4

[31] = test system: fig-leafed goosefoot; assay: Test Example 4: weedkilling efficacy by foliar treatment; M: fig-leafed goosefoot; settings: treatment dosage 315 g/ha
Procedure, shortened: as §4

[32] = test system: chickweed; assay: Test Example 4: weedkilling efficacy by foliar treatment; N: chickweed; settings: treatment dosage 315 g/ha
Procedure, shortened: as §4

[33] = test system: catchweed; assay: Test Example 4: weedkilling efficacy by foliar treatment; O: catchweed; settings: treatment dosage 315 g/ha
Procedure, shortened: as §4

[34] = test system: birds-eye speedwell; assay: Test Example 4: weedkilling efficacy by foliar treatment; p: birds-eye speedwell; settings: treatment dosage 315 g/ha
Procedure, shortened: as §4

[35] = test system: directly sown rice; assay: Test Example 4: foliar treatment, effect on crop; b: directly sown rice; settings: treatment dosage 315 g/ha
Procedure, shortened: as §4

[36] = test system: corn; assay: Test Example 4: foliar treatment, effect on crop; c: corn; settings: treatment dosage 315 g/ha
Procedure, shortened: as §4

[37] = test system: soybean; assay: Test Example 4: foliar treatment, effect on crop; d: soybean; settings: treatment dosage 315 g/ha
Procedure, shortened: as §4

[38] = test system: wheat; assay: Test Example 4: foliar treatment, effect on crop; e: wheat; settings: treatment dosage 315 g/ha
Procedure, shortened: as §4

[39] = test system: beet; assay: Test Example 4: foliar treatment, effect on crop; f: beet; settings: treatment dosage 315 g/ha
Procedure, shortened: as §4

Structure (SMILES): CC1=C(c2ccccc2)C(=O)N(C(C)(C)C(=O)Nc2nnc(C(F)(F)F)s2)CO1 [B-1-10]
- A (barnyard grass) weedkilling efficacy grade [1]: 5 (weed kill ratio 90% or more, (practically complete withering))
- B (bulrush) weedkilling efficacy grade [2]: 5 (weed kill ratio 90% or more, (practically complete withering))
- C (oval-leafed pondweed) weedkilling efficacy grade [3]: 5 (weed kill ratio 90% or more, (practically complete withering))
- a (transplanted rice) effect on crop grade [4]: 3 (weed kill ratio 40% or more, less than 70%)
- A (barnyard grass) weedkilling efficacy grade [5]: 4 (weed kill ratio 70% or more, less than 90%)
- B (bulrush) weedkilling efficacy grade [6]: 5 (weed kill ratio 90% or more, (practically complete withering))
- C (oval-leafed pondweed) weedkilling efficacy grade [7]: 5 (weed kill ratio 90% or more, (practically complete withering))
- D (crabgrass) weedkilling efficacy grade [8]: 5 (weed kill ratio 90% or more, (practically complete withering))
- E (green foxtail) weedkilling efficacy grade [9]: 5 (weed kill ratio 90% or more, (practically complete withering))
- G (wild oat) weedkilling efficacy grade [10]: 4 (weed kill ratio 70% or more, less than 90%)
- H (black-grass) weedkilling efficacy grade [11]: 5 (weed kill ratio 90% or more, (practically complete withering))
- I (Italian ryegrass) weedkilling efficacy grade [12]: 3 (weed kill ratio 40% or more, less than 70%)
- K (Indian mallow) weedkilling efficacy grade [13]: 3 (weed kill ratio 40% or more, less than 70%)
- L (redroot pigweed) weedkilling efficacy grade [14]: 3 (weed kill ratio 40% or more, less than 70%)
- M (fig-leafed goosefoot) weedkilling efficacy grade [15]: 3 (weed kill ratio 40% or more, less than 70%)
- N (chickweed) weedkilling efficacy grade [16]: 2 (weed kill ratio 20% or more, less than 40%)
- O (catchweed) weedkilling efficacy grade [17]: 0 (weed kill ratio 5% or less (practically no effect))
- P (birds-eye speedwell) weedkilling efficacy grade [18]: 4 (weed kill ratio 70% or more, less than 90%)
- b (directly sown rice) effect on crop grade [19]: 5 (weed kill ratio 90% or more, (practically complete withering))
- c (corn) effect on crop grade [20]: 3 (weed kill ratio 40% or more, less than 70%)
- d (soybean) effect on crop grade [21]: 0 (weed kill ratio 5% or less (practically no effect))
- e (wheat) effect on crop grade [22]: 0 (weed kill ratio 5% or less (practically no effect))
- f (beet) effect on crop grade [23]: 3 (weed kill ratio 40% or more, less than 70%)
- D (crabgrass) weedkilling efficacy grade [24]: 5 (weed kill ratio 90% or more, (practically complete withering))
- E (green foxtail) weedkilling efficacy grade [25]: 5 (weed kill ratio 90% or more, (practically complete withering))
- G (wild oat) weedkilling efficacy grade [26]: 2 (weed kill ratio 20% or more, less than 40%)
- H (black-grass) weedkilling efficacy grade [27]: 4 (weed kill ratio 70% or more, less than 90%)
- I (Italian ryegrass) weedkilling efficacy grade [28]: 0 (weed kill ratio 5% or less (practically no effect))
- K (Indian mallow) weedkilling efficacy grade [29]: 4 (weed kill ratio 70% or more, less than 90%)
- L (redroot pigweed) weedkilling efficacy grade [30]: 2 (weed kill ratio 20% or more, less than 40%)
- M (fig-leafed goosefoot) weedkilling efficacy grade [31]: 3 (weed kill ratio 40% or more, less than 70%)
- N (chickweed) weedkilling efficacy grade [32]: 2 (weed kill ratio 20% or more, less than 40%)
- O (catchweed) weedkilling efficacy grade [33]: 2 (weed kill ratio 20% or more, less than 40%)
- P (birds-eye speedwell) weedkilling efficacy grade [34]: 4 (weed kill ratio 70% or more, less than 90%)
- b (directly sown rice) effect on crop grade [35]: 5 (weed kill ratio 90% or more, (practically complete withering))
- c (corn) effect on crop grade [36]: 4 (weed kill ratio 70% or more, less than 90%)
- d (soybean) effect on crop grade [37]: 2 (weed kill ratio 20% or more, less than 40%)
- e (wheat) effect on crop grade [38]: 0 (weed kill ratio 5% or less (practically no effect))
- f (beet) effect on crop grade [39]: 2 (weed kill ratio 20% or more, less than 40%)
